Results taken from patent publication US20250041226A1, “MULTIPARTICULATE ALBACONAZOLE COMPOSITION” (PALAU PHARMA, S.L.U., priority 2021, published 2025).

How the values were obtained:
[1] = Dissolution test (Ph. Eur. 2.9.3, paddle apparatus, 0.1 N HCl, 45 min); format: physicochemical; details: HCl 0.1N, 45 minutes where stated
Experimental: • Analytical procedure: Ph. Eur. <2.9.3>; UVNis
• Paddle apparatus. • Stirring speed: 100 rpm. • Dissolution medium: 0.1 N Hydrochloric acid.
0.1 N Hydrochloric acid: using a pipette, transfer 8.5 ml of hydrochloric acid to a 1,000 ml calibrated flask and dilute to volume with water HPLC grade. • Volume of dissolution medium: 900 ml. • Dissolution time: 45 min. • Temperature of dissolution medium: 37±0.5° C.

[2] = Related substances (total impurities) by HPLC in stability experiments; format: physicochemical; details: within the coating
Experimental: • Analytical procedure: Ph. Eur. <2.2.29>; HPLC
• Column: Luna C18 (2) 5 μm, 150×4.6 mm. • Mobile phase: Acetonitrile/0.5% phosphoric acid as following:
• 0.5% phosphoric acid: using a pipette, transfer 5 ml of o-phosphoric acid (85%) to a 1,000 ml calibrated flask and dilute to volume with water HPLC grade. • Flow: 1.0 ml/min. • Wavelength detection: 210 nm. • Injection volume: 20 μl. • Column temperature: 30° C. • Retention time of Albaconazole: approx. 20.0 min. • Chromatogram time: 29 min.
Test solution: Grind the content (pellets) of, at least, 5 capsules, from the obtained powder weight, accurately, about 150 mg and transfer to a 25 ml calibrated flask. Add about 20 ml of acetonitrile HPLC grade and apply the ultrasound during approximately 10 min. Allow to cool and dilute to volume with acetonitrile HPLC grade. Filter through a 0.45 μm Millex HV-PVDF filter or similar, discard the first drops of filtrate (perform in triplicate).
Individual related substances that are lower than the quantification limit (Quantification limit: QL=0.015%), and any peak corresponding to placebo have not been quantified. The compositions of the invention may be used in the treatment of fungal infections in a patient by orally administering said compositions to said patient.

Row | Structure (SMILES) | Dissolution behaviour (observation in words) [1] | Impurities during stability experiments (in words) [2]
1 | C[C@@H](n1cnc2cc(Cl)ccc2c1=O)[C@](O)(Cn1cncn1)c1ccc(F)cc1F [Albaconazole form Ill, Albaconazole] | excellent dissolution results | low impurities during stability experiments
2 | C[C@@H](n1cnc2cc(Cl)ccc2c1=O)[C@](O)(Cn1cncn1)c1ccc(F)cc1F [crystalline Albaconazole, Albaconazole] | dissolves faster at early times than amorphous Albaconazole | –
